Results: ChEMBL document CHEMBL4706747, “Discovery of 5-Nitro-6-thiocyanatopyrimidines as Inhibitors of Cryptococcus neoformans and Cryptococcus gattii” (ACS Med Chem Lett, 2021)
≈ marks a conversion by molar mass, not a printed value. Where “and” joins values, the source holds several entries; their conditions need not be identical. Equal entries are not always repeated.

Legend:
[1] = Cytotoxicity against human HepDE19 cells incubated for 72 hrs by MTS assay; format: cell-based
[2] = system: Cryptococcus neoformans; experiment: Antifungal activity against Cryptococcus neoformans KN99alpha assessed as fungal growth inhibition after 48 hrs by limiting dilution method; format: functional
[3] = Antifungal activity against Cryptococcus gattii RSA-3615 assessed as fungal growth inhibition after 48 hrs by limiting dilution method; format: functional, Cryptococcus gattii VGI
[4] = system: Cryptococcus neoformans; experiment: Antifungal activity against fluconazole-resistant Cryptococcus neoformans DUMC-158.03 assessed as fungal growth inhibition after 48 hrs by limiting dilution method; format: functional
[5] = system: Cryptococcus neoformans; experiment: Antifungal activity against Cryptococcus neoformans assessed as fungal growth inhibition after 72 hrs by broth microdilution method; format: functional
[6] = Selectivity index, ratio of CC50 for human HepDE19 cells to MIC80 for Cryptococcus neoformans KN99alpha; format: toxicity; conditions: read-out: Selectivity Index
[7] = system: Cryptococcus neoformans; experiment: Synergistic antifungal activity against Cryptococcus neoformans KN99alpha assessed as fractional inhibitory concentration index in presence of fluconazole by checkerboard assay; format: functional
[8] = system: Cryptococcus neoformans; experiment: Synergistic antifungal activity against Cryptococcus neoformans KN99alpha assessed as fractional inhibitory concentration index in presence of amphotericin B by checkerboard assay; format: functional

Row | MIC80 [2] | MIC80 [3] | SMILES | CC50 at 72 h [1] | further results
1 | 4.55 µM and 1.4 µg/mL | 1.17 µM and 0.3 µg/mL | CCN(c1ncnc(SC#N)c1[N+](=O)[O-])C(C)C | 10.7 µM and 2.86 µg/mL | –
2 | 50 µM and 15.8 µg/mL | – | CC(C)Nc1nc(-c2ccccc2)nc(SC#N)c1[N+](=O)[O-] | – | –
3 | 9 µM and 2.51 µg/mL | 2.34 µM and 0.65 µg/mL | Cc1nc(NC2CCCC2)c([N+](=O)[O-])c(SC#N)n1 | – | –
4 | 9.37 µM and 3.25 µg/mL | 4.68 µM and 1.62 µg/mL | CSc1nc(NCc2ccc(C)cc2)c([N+](=O)[O-])c(SC#N)n1 | 19.2 µM and 6.67 µg/mL | –
5 | 3.9 µM and 0.93 µg/mL | 4.68 µM and 1.12 µg/mL | CCCOc1ncnc(SC#N)c1[N+](=O)[O-] | 31.8 µM and 7.64 µg/mL | –
6 | 9.37 µM and 2.5 µg/mL | 2.34 µM and 0.62 µg/mL | CCN(CC)c1nc(C)nc(SC#N)c1[N+](=O)[O-] | – | –
7 | 50 µM and 15.8 µg/mL | 1.17 µM and 0.36 µg/mL | Cc1ccc(CNc2nc(C)nc(SC#N)c2[N+](=O)[O-])cc1 | 14.7 µM and 4.65 µg/mL | –
8 | 18.8 µM and 5.76 µg/mL | 2.34 µM and 0.71 µg/mL | Cc1nc(SC#N)c([N+](=O)[O-])c(N2CCCCCCC2)n1 | – | –
9 | 3 µM and 0.8 µg/mL | – | CC(C)C(C)Nc1ncnc(SC#N)c1[N+](=O)[O-] (stereo unspecified) | – | –
10 | 4.68 µM and 1.05 µg/mL | 1.17 µM and 0.26 µg/mL | CN(C)c1ncnc(SC#N)c1[N+](=O)[O-] | – | –
11 | 6 µM and 1.67 µg/mL | 1.17 µM and 0.32 µg/mL | N#CSc1ncnc(NC2CCCCC2)c1[N+](=O)[O-] | – | –
12 | 18.8 µM and 5.49 µg/mL | 0.58 µM and 0.16 µg/mL | Cc1nc(SC#N)c([N+](=O)[O-])c(N2CCCCC2C)n1 (stereo unspecified) | – | –
13 | 4.68 µM and 0.92 µg/mL | 1.17 µM and 0.22 µg/mL | N#CSc1ncnc(N)c1[N+](=O)[O-] | – | –
14 | 9.37 µM and 1.98 µg/mL | > 25 µM and > 5.3 µg/mL | COc1ncnc(SC#N)c1[N+](=O)[O-] | – | –
15 | > 50 µM and > 15.7 µg/mL | > 25 µM and > 7.83 µg/mL | CNc1nc(/C=C/c2ccccc2)nc(SC#N)c1[N+](=O)[O-] | – | –
16 | 6 µM and 1.76 µg/mL | 4.68 µM and 1.37 µg/mL | CN(c1ncnc(SC#N)c1[N+](=O)[O-])C1CCCCC1 | 25.3 µM and 7.42 µg/mL | –
17 | 9.37 µM and 3.25 µg/mL | 1.17 µM and 0.4 µg/mL | CSc1nc(NCCc2ccccc2)c([N+](=O)[O-])c(SC#N)n1 | 15.4 µM and 5.35 µg/mL | –
18 | – | – | O[C@@](Cn1cnnn1)(c1ccc(F)cc1F)C(F)(F)c1ccc(-c2ccc(OC(F)(F)F)cc2)cn1 | – | MIC50 [5]: 0.015 µg/mL (≈ 0.0292 µM); MIC ([5]; read-out: MIC100): 0.06 µg/mL (≈ 0.117 µM)
19 | 9 µM and 2.53 µg/mL | 9.37 µM and 2.63 µg/mL | CCC(CC)Nc1nc(C)nc(SC#N)c1[N+](=O)[O-] | – | –
20 | 18.8 µM and 5.76 µg/mL | 9.37 µM and 2.88 µg/mL | Cc1nc(SC#N)c([N+](=O)[O-])c(N2CC(C)CC(C)C2)n1 (stereo unspecified) | – | –

Row | MIC80 [2] | MIC80 [3] | SMILES | CC50 at 72 h [1] | further results
21 | 3.51 µM and 1.05 µg/mL | 2.34 µM and 0.7 µg/mL | N#CSc1ncnc(NCCc2ccccc2)c1[N+](=O)[O-] | 15.1 µM and 4.55 µg/mL | –
22 | 5.85 µM and 1.88 µg/mL | 1.17 µM and 0.37 µg/mL | N#CSc1ncnc(NCc2ccc(Cl)cc2)c1[N+](=O)[O-] | 22.5 µM and 7.25 µg/mL | –
23 | 4.68 µM and 1.23 µg/mL | 1.17 µM and 0.3 µg/mL | Cc1nc(SC#N)c([N+](=O)[O-])c(N2CCCC2)n1 | – | –
24 | 9.37 µM and 2.74 µg/mL | 15.6 µM and 4.58 µg/mL | CC1CCCC(C)N1c1ncnc(SC#N)c1[N+](=O)[O-] (stereo unspecified) | – | –
25 | 50 µM and 15.1 µg/mL | 18.8 µM and 5.64 µg/mL | Cc1nc(NCc2ccccc2)c([N+](=O)[O-])c(SC#N)n1 | 15.9 µM and 4.78 µg/mL | –
26 | 2.34 µM and 0.7 µg/mL | 1.17 µM and 0.35 µg/mL | CN(Cc1ccccc1)c1ncnc(SC#N)c1[N+](=O)[O-] | 18.8 µM and 5.66 µg/mL | –
27 | 9.37 µM and 2.37 µg/mL | 0.14 µM and 0.03 µg/mL | CCN(CC)c1ncnc(SC#N)c1[N+](=O)[O-] | – | –
28 | > 50 µM and > 24.6 µg/mL | > 25 µM and > 12.3 µg/mL | Cc1nc(NC2CCCCC2)c([N+](=O)[O-])c(SC#N)n1 | – | –
29 | 18.5 µM and 4.94 µg/mL | > 25 µM and > 6.68 µg/mL | CCC(CC)Nc1ncnc(SC#N)c1[N+](=O)[O-] | – | –
30 | 18.8 µM and 5.49 µg/mL | 4.68 µM and 1.37 µg/mL | Cc1nc(SC#N)c([N+](=O)[O-])c(N2CCCCCC2)n1 | – | –
31 | 9.37 µM and 3.32 µg/mL | 4.68 µM and 1.66 µg/mL | N#CSc1ncnc(NCc2cccc(C(F)(F)F)c2)c1[N+](=O)[O-] | 25.9 µM and 9.21 µg/mL | –
32 | 4.68 µM and 1.56 µg/mL | 4.68 µM and 1.56 µg/mL | CSc1nc(NCc2ccccc2)c([N+](=O)[O-])c(SC#N)n1 | 18.6 µM and 6.2 µg/mL | –
33 | 2.34 µM and 0.68 µg/mL | 9.37 µM and 2.74 µg/mL | CC1CC(C)CN(c2ncnc(SC#N)c2[N+](=O)[O-])C1 (stereo unspecified) | 33.6 µM and 9.86 µg/mL | –
34 | 4.68 µM and 1.11 µg/mL | 2.34 µM and 0.55 µg/mL | Cc1nc(SC#N)c([N+](=O)[O-])c(N(C)C)n1 | – | –
35 | 1.9 µM and 0.45 µg/mL | 1.17 µM and 0.27 µg/mL | CC(C)Oc1ncnc(SC#N)c1[N+](=O)[O-] | 23.3 µM and 5.6 µg/mL | –
36 | 4.68 µM and 1.37 µg/mL | 2.34 µM and 0.68 µg/mL | N#CSc1ncnc(N2CCCCCCC2)c1[N+](=O)[O-] | – | –
37 | 50 µM and 15.8 µg/mL | 2.34 µM and 0.73 µg/mL | Cc1nc(NCCc2ccccc2)c([N+](=O)[O-])c(SC#N)n1 | 12.3 µM and 3.87 µg/mL | –
38 | 9.37 µM and 2.61 µg/mL | 1.17 µM and 0.32 µg/mL | CC1CCCCN1c1ncnc(SC#N)c1[N+](=O)[O-] (stereo unspecified) | – | –
39 | > 50 µM and > 16.5 µg/mL | > 25 µM and > 8.23 µg/mL | CC(C)N(Cc1ccccc1)c1ncnc(SC#N)c1[N+](=O)[O-] | – | –

Row | SMILES | MIC80 [2] | MIC80 [3] | CC50 at 72 h [1] | further results
40 | Cc1nc(OC(C)C)c([N+](=O)[O-])c(SC#N)n1 | 1 µM and 0.25 µg/mL | 1.17 µM and 0.29 µg/mL | 14.6 µM and 3.71 µg/mL | MIC80 [4]: 1.17 µM and 0.29 µg/mL
41 | N#CSc1ncnc(NC2CCCC2)c1[N+](=O)[O-] | 4.9 µM and 1.29 µg/mL | 1.17 µM and 0.3 µg/mL | – | MIC80 [4]: 2.34 µM and 0.62 µg/mL
42 | N#CSc1ncnc(N2CCCCCC2)c1[N+](=O)[O-] | 2.34 µM and 0.65 µg/mL | 2.34 µM and 0.65 µg/mL | 17.7 µM and 4.94 µg/mL | MIC80 [4]: 2.34 µM and 0.65 µg/mL
43 | CC(C)Nc1nc(C(F)(F)F)nc(SC#N)c1[N+](=O)[O-] | 12.2 µM and 4.4 µg/mL | > 25 µM and > 7.68 µg/mL | 42.8 µM and 13.2 µg/mL | MIC80 [4]: 18.8 µM and 5.76 µg/mL
44 | Cc1nc(NC2CC2)c([N+](=O)[O-])c(SC#N)n1 | 0.6 µM and 0.15 µg/mL | 0.58 µM and 0.14 µg/mL | 12.7 µM and 3.19 µg/mL | MIC80 [4]: 1.17 µM and 0.29 µg/mL; selectivity ratio [6]: 16; fractional inhibitory concentration index (FICI) [7]: 1.5; fractional inhibitory concentration index (FICI) [8]: 1.25
45 | CCOc1nc(C)nc(SC#N)c1[N+](=O)[O-] | 1.17 µM and 0.27 µg/mL | 0.29 µM and 0.06 µg/mL | 19.8 µM and 4.76 µg/mL | MIC80 [4]: 2.34 µM and 0.56 µg/mL
46 | CNc1nc(C)nc(SC#N)c1[N+](=O)[O-] | 2.34 µM and 0.52 µg/mL | 1.17 µM and 0.26 µg/mL | > 100 µM and > 22.5 µg/mL | MIC80 [4]: 2.34 µM and 0.52 µg/mL
47 | N#CSc1ncnc(NCc2ccccc2)c1[N+](=O)[O-] | 2.34 µM and 0.66 µg/mL | 1.17 µM and 0.33 µg/mL | 19.6 µM and 5.63 µg/mL | MIC80 [4]: 1.17 µM and 0.33 µg/mL
48 | CCCOc1nc(C)nc(SC#N)c1[N+](=O)[O-] | 0.6 µM and 0.15 µg/mL | 1.17 µM and 0.29 µg/mL | 15.8 µM and 4.02 µg/mL | MIC80 [4]: 1.17 µM and 0.29 µg/mL
49 | Cc1nc(N)c([N+](=O)[O-])c(SC#N)n1 | 2.34 µM and 0.48 µg/mL | 0.58 µM and 0.12 µg/mL | 24.5 µM and 5.17 µg/mL | MIC80 [4]: 2.34 µM and 0.49 µg/mL
50 | CC(C)Nc1ncnc(SC#N)c1[N+](=O)[O-] | 2.34 µM and 0.55 µg/mL | 0.58 µM and 0.13 µg/mL | 12 µM and 2.87 µg/mL | MIC80 [4]: 2.34 µM and 0.55 µg/mL
51 | N#CSc1ncnc(N2CCCCC2)c1[N+](=O)[O-] | 2.34 µM and 0.61 µg/mL | 1.17 µM and 0.3 µg/mL | 11.9 µM and 3.16 µg/mL | MIC80 [4]: 4.68 µM and 1.24 µg/mL
